Literature values, collected in patent publication US20150290173A1, “TREATMENT OF SKIN OR MUCOSAL PATHOLOGY” (ZARZATECH, INC., priority 2012, published 2015).
Counter-ions that a name gives are not always drawn.

Legend:
[1] = dog gingivitis model
crevicular neutrophils = settings: topical 0.5% oral rinse, humans

Row | SMILES | anti-gingivitis activity ([1]; dose response study) | gingival inflammation and gingival bleeding [1] | antibacterial function of crevicular neutrophils (crevicular neutrophils) | clinical benefit on gingivitis (crevicular neutrophils)
1 | CN/C(=N/CCSCc1nc[nH]c1C)NC#N [cimetidine HCL] | significant anti-gingivitis activity that increased with increasing dose |  |  | 
2 | CN/C(=N/CCSCc1nc[nH]c1C)NC#N [cimetidine, Cimetidine] |  | significantly reduced gingival inflammation and gingival bleeding | enhanced antibacterial function of crevicular neutrophils | no clinical benefit on gingivitis
